Several values for one entry are separate records, joined by “and”; a condition that tells them apart may be missing. Equal entries are not always repeated. Entries after “also recorded” stand apart in the source; their conditions may differ.
What was measured:
[1] = system: Breast patient VII PDX tumors; experiment: Breast patient VII PDX model, combination with DOX; assay type: in vivo, nude mice
Description: Nude mice bearing orthotopic the Breast patient VII PDX tumors received 5 mg/kg equivalent dose of GKT831 or HANP/GKT831 combined with 5 mg/kg of DOX via the tail vein once a week for 5 administrations.
Therapy resistant breast cancer PDX models were established in nude mice from surgically resected tumor tissues of both hormonal receptor positive (HR+) and triple negative breast cancer patients. Patient VII PDX model was derived tumor from HR+ breast cancer tissue that progressed after neoadjuvant therapy with Dox+ Taxol and adjuvant radiotherapy (50 Gy). Patient IX PDX model was derived from a breast cancer tissue that was resistant to Dox/cyclophosphamide/Taxol therapy and 50 Gy of pre-operative radiation therapy. Both patients developed recurrent tumors and deceased 23 and 25 months after surgery. […] CD44 is the cellular receptor for HA and therefore, HANP can target to CD44+ tumor and stromal cells. […] The targeted delivery of near-infrared (NIR) 830 dye labeled HANPs in the breast cancer PDX models were examined using optical imaging and histological analysis. […] Accumulation of HANPs in the liver was further examined.
The inhibition of NOX1/4 on tumor growth and sensitization of therapeutic responses to a chemotherapy drug, DOX, were examined in the breast Patient VII and Patient IX PDX models growing in the mammary fat pad of nude mice.

[2] = system: Breast patient VII PDX tumors; experiment: RNAseq gene expression profiles of PDX tumors after five i.v. treatments; assay type: in vivo, nude mice
Description: ATFB was increased by HANP/GKT831 but decrease in GKT831 treated tumor.
Biomaterial low molecular weight HA generated nanoparticle drug carrier has unique biological activities compared with other nanoparticle drug carriers. […] To understand molecular mechanisms by which HANP/GKT831 enhanced responses to DNA damaging drug and radiation, gene expression profiles of the breast patient VII PDX tumors following five i.v. treatments were analyzed using RNAseq assay. […] Since human immune cells express NOX2 subtype, HANP/GKT831 treatment may not affect tumor immune responses but GKT831 treatment may decrease immune responses in tumors. Furthermore, HANP/GKT831 inhibited the expression of mitochondrial electron transport and ATP production genes, which promote tumor cell death (FIG. 7B). […] Therefore, it is likely that those differences in gene regulation contributed to a strong chemo- and radiotherapy enhancement effect of HANP/GKT831.

[3] = system: human breast cancer MCF-7 cells; experiment: Cell proliferation assay on MCF-7 cells; assay type: cell-based; conditions: MCF7, read-out: IC50, growth inhibition
[4] = system: ROS generation in MCF-7 cells (NOX1/4 activity); experiment: ROS production in MCF-7 cells (DCFDA assay); assay type: cell-based, human
[5] = system: Breast patient IX PDX tumors; experiment: Breast patient IX PDX model, combination with Dox; assay type: in vivo, nude mice

SMILES | increase in tumor volume compared the starting tumor volume ([1]; 5 mg/kg i.v. weekly x5) [%] | tumor growth inhibition compared to no treatment control ([1]; single agent treatment) | anti-tumor effect / tumor growth inhibition [1] | ATFB expression ([2]; PDX tumors (FIG. 7B)) | expression of mitochondrial electron transport and ATP production genes ([2]; PDX tumors (FIG. 7B)) | expression of mitochondrial electron transport and ATP production genes ([2]; PDX tumors (FIG. 7B), listed as GKT 831) | NOX2 gene expression ([2]; patient VII PDX tumors) | level of NOX4 gene expression ([2]; patient VII PDX tumors) | IC50 [3] [µM] | ROS generation [4] | effect on tumor growth [5]
COc1cccc2c1C(=O)c1c(O)c3c(c(O)c1C2=O)C[C@@](O)(C(=O)CO)C[C@@H]3O[C@H]1C[C@H](N)[C@H](O)[C@H](C)O1 [DOX, doxorubicin] | 150 | ~40% and 60% | – | – | – | – | – | – | – | – | –
CN(C)c1cccc(-c2c3c(=O)n(-c4ccccc4Cl)[nH]c3cc(=O)n2C)c1 [GKT831, 2-(2-chlorophenyl)-4-(3-(dimethylamino)phenyl)-5-methyl-1,2-dihydro-3H-pyrazolo[4,3-c]pyridine-3,6(5H)-dione] | – | – | did not show a significant difference | decrease | increased MT-ND and MT-CO2 expression | upregulated the expression of some of those genes | downregulated | did not significantly affect | 30 | did not show obvious ROS reduction | did not show a significant difference; also recorded: did not show any effect on tumor growth
